Results from patent US20220023289A1, “Application Of Pyrroloquinoline Quinone In Preparation Of Medicament Used For Preventing And Treating Acute Altitude Sickness And Acute Altitude Hypoxia Injury” (priority 2018, published 2022).

Experiments:
[1] = system: rats exposed to acute altitude hypoxia; experiment: Renal function in rats exposed to acute altitude hypoxia; type: in vivo, Wistar rat; details: male rats, hypoxia
Procedure: (§1) Select healthy Wistar rats weight 160-200 g, half female and half male. After feeding for 3 days, these Wistar rats are randomly divided into ten groups according to their body weight, each group has 16±2 rats. The groups are divided as follows: five groups of the hypoxic exposure drug test group, respectively, are given 0.91 mg/kg, 1.83 mg/kg, 3.66 mg/kg, 7.31 mg/kg, and 14.63 mg/kg drugs. […] After continuous intragastric administration for 7 days, the animals in the hypoxic exposure group are simultaneously put into the decompression and hypoxia compound experimental chamber, the hatch is closed, and the pressure is reduced at a speed of 10 m/s. After being raised to an altitude of 6000 m and maintained for 8 hours, the speed in 10 m/s drops is reduced to normal altitude, open the hatch, and then take out the animal, collect blood samples (after standing for 1 hour, the supernatant is centrifuged and stored at −20° C.), and liver tissue samples. Detection indicator includes body weight, serum blood glucose, ATP, lactic acid, endothelin, nitric oxide, SOD, CO, MDA related to oxidative stress, and total protein, albumin, triglycerides, total cholesterol, high-density lipoprotein cholesterol, low-density lipoprotein cholesterol, glutamic pyruvic transaminase, total bilirubin, gluamic oxalacetic transaminase, serum urea nitrogen, creatinine, uric acid, lactate dehydrogenase, creatine kinase, α-hydroxybutyrate dehydrogenase; liver ATP, hepatic glycogen. Except that the formal oxygen control animal group is not put into the decompression and hypoxia compound experimental chamber, other experimental conditions and detection indicators are the same.
(§2) Measure blood glucose, total protein, albumin, triglycerides, total cholesterol, high-density lipoprotein cholesterol, low-density lipoprotein cholesterol, glutamic-pyruvic transaminase, total bilirubin, glutamic oxalacetic transaminase, serum urea nitrogen, creatinine, uric acid, lactate dehydrogenase, creatine kinase, α-hydroxybutyrate dehydrogenase, blood homocysteine by using an automatic blood biochemical analyzer.

[2] = system: rats exposed to acute altitude hypoxia; experiment: Myocardial enzyme activity in rats exposed to acute altitude hypoxia; type: in vivo, Wistar rat
Procedure: as §1, §2

[3] = system: rats exposed to acute altitude hypoxia; experiment: Protein metabolism in rats exposed to acute altitude hypoxia; type: in vivo, Wistar rat
Procedure: as §1, §2

[4] = Rat body weight before the acute decompression hypoxia experiment (intragastric 7 days)
Procedure: as §1

[5] = system: rats exposed to acute altitude hypoxia; experiment: Serum homocysteine in rats exposed to acute altitude hypoxia; type: in vivo, Wistar rat
Procedure: as §1, §2

[6] = female rats, hypoxia, 0.91 mg/kg
[7] = female rats, hypoxia, 1.83 mg/kg
[8] = female rats, hypoxia, 3.66 mg/kg
[9] = female rats, hypoxia, 7.31 mg/kg
[10] = female rats, hypoxia, 14.63 mg/kg
[11] = female rats, normoxia, 3.66 mg/kg
[12] = male rats, hypoxia, 14.63 mg/kg
[13] = male rats exposed to hypoxia, low-dose

For `O=C(O)c1cc(C(=O)O)c2c(n1)C(=O)C(=O)c1cc(C(=O)O)[nH]c1-2` [PQQ, pyrroloquinoline quinone], the Uric acid ([1]; 3.66 mg/kg) was 171.38 ± 14.92 µmol/L, the Creatinine ([1]; 7.31 mg/kg) was 22.40 ± 1.53 µmol/L and the Serum urea nitrogen ([1]; 7.31 mg/kg) was 5.91 ± 0.86 mmol/L. The Uric acid ([1]; 7.31 mg/kg) was 202.16 ± 17.13 µmol/L, the Creatinine ([1]; 14.63 mg/kg) was 22.49 ± 3.00 µmol/L and the Serum urea nitrogen ([1]; 14.63 mg/kg) was 6.23 ± 1.36 mmol/L. The Uric acid ([1]; 14.63 mg/kg) was 182.22 ± 15.80 µmol/L, the “Creatine Kinase” value [2, 6] was 505.43 ± 202.03 U/L and the Lactate dehydrogenase [2, 6] was 627.43 ± 253.66 U/L. For the same compound, the α-hydroxybutyrate dehydrogenase [2, 6] was 270.28 ± 111.79 U/L, the “Creatine Kinase” value [2, 7] was 508.57 ± 235.83 U/L and the Lactate dehydrogenase [2, 7] was 650.00 ± 338.13 U/L. For the same compound, the α-hydroxybutyrate dehydrogenase [2, 7] was 286.71 ± 154.38 U/L, the “Creatine Kinase” value [2, 8] was 459.14 ± 239.34 U/L and the Lactate dehydrogenase [2, 8] was 544.14 ± 314.26 U/L. For the same compound, the α-hydroxybutyrate dehydrogenase [2, 8] was 233.43 ± 147.72 U/L, the “Creatine Kinase” value [2, 9] was 454.86 ± 241.51 U/L and the Lactate dehydrogenase [2, 9] was 499.71 ± 320.46 U/L. The α-hydroxybutyrate dehydrogenase [2, 9] was 210.14 ± 140.24 U/L, the “Creatine Kinase” value [2, 10] was 439.86 ± 222.18 U/L and the Lactate dehydrogenase [2, 10] was 496.86 ± 259.65 U/L. For the same compound, the α-hydroxybutyrate dehydrogenase [2, 10] was 208.86 ± 112.12 U/L, the “effect on serum lactic dehydrogenase, creatine kinase, α-hydroxybutyrate dehydrogenase activity” value ([2]; female rats, normoxia) was “increasing” and the “Creatine Kinase” value [2, 11] was 1024.00 ± 313.62 U/L. The Lactate dehydrogenase [2, 11] was 1199.14 ± 204.93 U/L, the α-hydroxybutyrate dehydrogenase [2, 11] was 537.29 ± 92.21 U/L and the “effect on serum lactic dehydrogenase, creatine kinase, α-hydroxybutyrate dehydrogenase activity” value ([2]; hypoxia exposed female rats) was “has been not found”. The “effect on serum lactate dehydrogenase, creatine kinase, α-hydroxybutyrate dehydrogenase” value ([2]; hypoxia exposed male rats) was “has not been found”, the “Creatine Kinase” value ([2]; male rats, hypoxia, 0.91 mg/kg) was 443.63 ± 260.18 U/L and the Lactate dehydrogenase ([2]; male rats, hypoxia, 0.91 mg/kg) was 463.38 ± 364.37 U/L. The α-hydroxybutyrate dehydrogenase ([2]; male rats, hypoxia, 0.91 mg/kg) was 218.00 ± 173.09 U/L, the “Creatine Kinase” value ([2]; male rats, hypoxia, 1.83 mg/kg) was 544.63 ± 418.71 U/L and the Lactate dehydrogenase ([2]; male rats, hypoxia, 1.83 mg/kg) was 650.13 ± 573.72 U/L. For the same compound, the α-hydroxybutyrate dehydrogenase ([2]; male rats, hypoxia, 1.83 mg/kg) was 286.75 ± 260.98 U/L, the “Creatine Kinase” value ([2]; male rats, hypoxia, 3.66 mg/kg) was 544.50 ± 243.30 U/L and the Lactate dehydrogenase ([2]; male rats, hypoxia, 3.66 mg/kg) was 588.13 ± 360.36 U/L. For the same compound, the α-hydroxybutyrate dehydrogenase ([2]; male rats, hypoxia, 3.66 mg/kg) was 256.63 ± 154.55 U/L, the “Creatine Kinase” value ([2]; male rats, hypoxia, 7.31 mg/kg) was 640.25 ± 333.16 U/L and the Lactate dehydrogenase ([2]; male rats, hypoxia, 7.31 mg/kg) was 767.38 ± 546.88 U/L. For the same compound, the α-hydroxybutyrate dehydrogenase ([2]; male rats, hypoxia, 7.31 mg/kg) was 325.63 ± 238.56 U/L, the “Creatine Kinase” value [2, 12] was 510.89 ± 240.61 U/L and the Lactate dehydrogenase [2, 12] was 510.44 ± 275.48 U/L. For the same compound, the α-hydroxybutyrate dehydrogenase [2, 12] was 218.67 ± 118.08 U/L, the “effect on serum total protein content” value ([3]; female rats, high-dose) was “the same as the hypoxia model group” and the “albumin (second column)” value [3, 6] was 31.03 ± 0.98 g/L. The “albumin (second column)” value [3, 7] was 29.67 ± 0.98 g/L, the “albumin (second column)” value [3, 8] was 29.33 ± 0.62 g/L and the “albumin (second column)” value [3, 10] was 30.16 ± 1.40 g/L. The “albumin (second column)” value ([3]; female rats, hypoxia, 7.3 l mg/kg) was 31.49 ± 0.70 g/L, the “effect on total serum protein content” value ([3]; female rats, normoxia) was “no significant effects” and the “albumin (second column)” value [3, 11] was 30.87 ± 1.41 g/L. For the same compound, the “effect on serum albumin” value ([3]; hypoxia exposed female rats (PQQ low-dose)) was “can reduce the effect of serum albumin in female rats increase caused by hypoxic exposure”, the “effect on serum total protein content” value ([3]; hypoxia exposed female rats, low-dose) was “can slightly reduce” and the “effect on serum albumin content” value [3, 13] was “can reduce the effect of hypoxia exposure on the increase in serum albumin content”. The “effect on serum total protein content” value [3, 13] was “can slightly reduce”, the “effect on serum total protein content” value ([3]; male rats, high-dose) was “the same as that of the hypoxia model group” and the “albumin (second column)” value ([3]; male rats, hypoxia, 0.91 mg/kg) was 22.55 ± 2.53 g/L. For the same compound, the “albumin (second column)” value ([3]; male rats, hypoxia, 1.83 mg/kg) was 26.14 ± 2.04 g/L, the “albumin (second column)” value ([3]; male rats, hypoxia, 3.66 mg/kg) was 28.60 ± 1.12 g/L and the “albumin (second column)” value ([3]; male rats, hypoxia, 7.31 mg/kg) was 28.06 ± 1.31 g/L. The “albumin (second column)” value [3, 12] was 28.38 ± 0.90 g/L, the “rat body weight Female 1 day” value ([4]; 0.91 mg/kg) was 154.4 ± 7.2 g and the “rat body weight Female 7 days” value ([4]; 0.91 mg/kg) was 169.6 ± 3.3 g. For the same compound, the “rat body weight Male 1 day” value ([4]; 0.91 mg/kg) was 173.4 ± 7.4 g, the “rat body weight Male 7 days” value ([4]; 0.91 mg/kg) was 196.4 ± 5.7 g and the “rat body weight Female 1 day” value ([4]; 1.83 mg/kg) was 153.6 ± 6.9 g. The “rat body weight Female 7 days” value ([4]; 1.83 mg/kg) was 167.4 ± 6.7 g, the “rat body weight Male 1 day” value ([4]; 1.83 mg/kg) was 173.6 ± 5.9 g and the “rat body weight Male 7 days” value ([4]; 1.83 mg/kg) was 206.8 ± 6.2 g. For the same compound, the “rat body weight Female 1 day” value ([4]; 3.66 mg/kg) was 154.1 ± 8.6 g, the “rat body weight Female 7 days” value ([4]; 3.66 mg/kg) was 172.1 ± 2.2 g and the “rat body weight Male 1 day” value ([4]; 3.66 mg/kg) was 170.8 ± 10.8 g. For the same compound, the “rat body weight Male 7 days” value ([4]; 3.66 mg/kg) was 198.3 ± 9.0 g, the “rat body weight Female 1 day” value ([4]; 7.31 mg/kg) was 154.3 ± 7.7 g and the “rat body weight Female 7 days” value ([4]; 7.31 mg/kg) was 171.1 ± 8.6 g. For the same compound, the “rat body weight Male 1 day” value ([4]; 7.31 mg/kg) was 169.9 ± 9.9 g, the “rat body weight Male 7 days” value ([4]; 7.31 mg/kg) was 198.6 ± 11.6 g and the “rat body weight Female 1 day” value ([4]; 14.63 mg/kg) was 152.7 ± 7.2 g. The “rat body weight Female 7 days” value ([4]; 14.63 mg/kg) was 166.0 ± 4.1 g, the “rat body weight Male 1 day” value ([4]; 14.63 mg/kg) was 171.6 ± 10 g and the “rat body weight Male 7 days” value ([4]; 14.63 mg/kg) was 199.6 ± 12.5 g. For the same compound, the “effect on body weight” value ([4]; female rats, 7 days) was “did not affect”, the effect on weight ([4]; male rats, 7 days) was “did not affect” and the Serum homocysteine [5, 6] was 9.43 ± 1.4 µmol/L. It also gave a Serum homocysteine [5, 7] of 10.66 ± 2.13 µmol/L, a Serum homocysteine [5, 8] of 9.63 ± 1.97 µmol/L and a Serum homocysteine [5, 9] of 8.6 ± 1.72 µmol/L. For the same compound, the Serum homocysteine [5, 10] was 8.11 ± 1.37 µmol/L, the “effect on serum homocysteine” value ([5]; female rats, normoxia) was “no significant effects” and the Serum homocysteine [5, 11] was 9.76 ± 1.16 µmol/L. For the same compound, the “effect on serum homocysteine” value ([5]; hypoxia exposed female rats) was “no significant effects”, the “effect on serum homocysteine” value ([5]; hypoxia exposed male rats) was “have been not found” and the Serum homocysteine ([5]; male rats, hypoxia, 0.91 mg/kg) was 11.18 ± 2.09 µmol/L. It also gave a Serum homocysteine ([5]; male rats, hypoxia, 1.83 mg/kg) of 13.24 ± 3.87 µmol/L, a Serum homocysteine ([5]; male rats, hypoxia, 3.66 mg/kg) of 13.65 ± 3.24 µmol/L and a Serum homocysteine ([5]; male rats, hypoxia, 7.31 mg/kg) of 11.48 ± 2.36 µmol/L. For the same compound, the Serum homocysteine [5, 12] was 12.78 ± 2.87 µmol/L.
